Reference: EP4678635A1, “CRYSTAL FORM OF NIROGACESTAT DIHYDROBROMATE, AND PREPARATION METHOD THEREFOR AND USE THEREOF” (Crystal Pharmaceutical (Suzhou) Co., Ltd., priority 2023, dated 2024)
In brackets after ≈: the same amount, converted by molar mass. Where two headings read alike, the source gives them in different places.

Experiments:
Assay type in all cases: physicochemical
[1] = Stability under mechanical force: tableting under different pressures, XRPD; conditions: Φ6mm round tooling punch
Method: An appropriate amount of Form CSV was compressed into tablets under different pressures with a Φ6mm round tooling punch. XRPD tests were conducted before and after compression. The test results are listed in Table 6, and the XRPD overlay is depicted in Figure 5.
An appropriate amount of Form CSVI was compressed into tablets under different pressures with a Φ6mm round tooling punch. XRPD tests were conducted before and after compression. The test results are listed in Table 10, and the XRPD overlay is depicted in Figure 12.

[2] = Compressibility (tensile strength of tablets, manual tablet press); conditions: about 60 mg, Φ6mm round tooling, pressure of 3 kN, 24 h at RT; T=2H/πDL
Method: (§1) Tablets were prepared by an ENERPAC manual tablet press. About 60 mg of Form CSV and the prior art Form A were separately added to Φ6mm round tooling punches and compressed into tablets under a pressure of 3 kN. The tablets were left at RT for 24 h to allow complete elastic recovery. The diameter (D) and thickness (L) were measured using a vernier caliper, and their radial crushing strength (hardness, H) was determined using a tablet hardness tester. The tensile strength (T) of the powders was calculated with the following formula: T=2H/πDL. […] Under a certain force, higher tensile strength indicates better compressibility.
as §1, with “CSVI” for “CSV”

[3] = Kinetic solubility in FaSSIF and FeSSIF
Method: Table 2 [table] When solubility test is used to predict the in vivo performance of a drug, it is critical to simulate in vivo conditions as closely as possible. For oral drugs, FaSSIF and FeSSIF can be used to simulate the conditions in vivo and predict the effect of eating. Solubilities in these media are closer to those in vivo. Appropriate amounts of Form CSVI were suspended in FaSSIF and FeSSIF at 37 °C. After equilibration for 0.5 h, the suspensions were filtered and the concentration (mg/mL) of Compound I in each filtrate was measured by HPLC. […]

[4] = Storage stability (crystalline form by XRPD, purity by HPLC); conditions: for Solid form / remains stable for at least / Crystalline form: sealed container; for Solid form / Crystalline form: XRPD; for Solid form: initial Form CSVI; for Purity (%): HPLC, initial purity 99.51; for Crystalline form: initial Form CSV
Method: (§2) An appropriate amount of Form CSV was packaged in a sealed container and then stored under the conditions of 25 °C/60%RH, 40 °C/75%RH and 60 °C/75%RH, respectively. Crystalline form and purity were analyzed by XRPD and HPLC. The results are listed in Table 5, and the XRPD pattern overlay is depicted in Figure 4. […] Meanwhile, Form CSV remains stable for at least 2 months under 60 °C/75%RH condition, indicating Form CSV has good stability under stress condition as well.
as §2, with “CSVI” for “CSV”, “was” for “and purity were”, “XRPD.” for “XRPD and HPLC.”, “9,” for “5,”, “11.” for “4.”

[5] = Stability under mechanical force: ball milling, XRPD; conditions: ball milling at 500 rpm for 5 minutes
Method: An appropriate amount of Form CSV was subjected to ball milling at 500 rpm for 5 minutes using a ball mill. […]
An appropriate amount of Form CSVI was subjected to ball milling at 500 rpm for 5 minutes using a ball mill. […]

Bulk and tapped density = conditions: for Bulk density: about 500 mg in 5-mL graduated cylinder, before tapping; for Tapped density: tapped 1250 times
Method: About 500 mg of sample was gently loaded into a 5-mL graduated cylinder to measure the bulk volume before tapping. The sample was then tapped 1250 times on a ZS-2E tap density tester to achieve a tapped state, and the tapped volume was recorded. The bulk density ρ0 and tapped density ρf were calculated accordingly.

| After tableting (crystalline form) ([1]; Pressure 5 kN) | After tableting (crystalline form) ([1]; Pressure 10 kN) | After tableting (crystalline form) ([1]; Pressure 20 kN) | average tensile strength [2] | remains stable for at least ([4]; 25 °C/60%RH) | remains stable for at least ([4]; 40 °C/75%RH) | remains stable for at least ([4]; 60 °C/75%RH) | crystalline form before and after ball milling [5] | SMILES | further results |
| --- | --- | --- | --- | --- | --- | --- | --- | --- | --- |
| Form CSVI | Form CSVI | Form CSVI | 0.907 MPa | at least 8 months | at least 8 months | at least 2 months | remained unchanged | CCC[C@H](N[C@H]1CCc2cc(F)cc(F)c2C1)C(=O)Nc1cn(C(C)(C)CNCC(C)(C)C)cn1 [Form CSVI, (S)-2-(((S)-6,8-difluoro-1,2,3,4-tetrahydronaphthalen-2-yl)amino)-N-(1-(2-methyl-1-(neopentylamino)propan-2-yl)-1H-imidazol-4-yl) pentanamide] | solubility at 0.5 h ([3]; FeSSIF, 37 °C, equilibration for 0.5 h, HPLC, read-out: solubility (concentration of Compound I in filtrate)): 10100 µg/mL (≈ 20.6 mM); solubility at 0.5 h ([3]; fassif, 37 °C, equilibration for 0.5 h, HPLC, read-out: solubility (concentration of Compound I in filtrate)): 16100 µg/mL (≈ 32.9 mM); Solid form ([4]; 25 °C/60%RH, 8 months): Form CSVI; Solid form ([4]; 40 °C/75%RH, 8 months): Form CSVI; Solid form ([4]; 60 °C/75%RH, 2 months): Form CSVI |
| Form CSV | Form CSV | Form CSV | 0.55 MPa | at least 6 months | at least 6 months | at least 2 months | remained unchanged | CCC[C@H](N[C@H]1CCc2cc(F)cc(F)c2C1)C(=O)Nc1cn(C(C)(C)CNCC(C)(C)C)cn1 [Form CSV, (S)-2-(((S)-6,8-difluoro-1,2,3,4-tetrahydronaphthalen-2-yl)amino)-N-(1-(2-methyl-1-(neopentylamino)propan-2-yl)-1H-imidazol-4-yl) pentanamide] | Purity (%) ([4]; 25 °C/60%RH, 6 months): 99.52%; Crystalline form ([4]; 25 °C/60%RH, 6 months): Form CSV; Purity (%) ([4]; 40 °C/75%RH, 6 months): 99.50%; Crystalline form ([4]; 40 °C/75%RH, 6 months): Form CSV; Purity (%) ([4]; 60 °C/75%RH, 2 months): 99.54%; Crystalline form ([4]; 60 °C/75%RH, 2 months): Form CSV; Bulk density (Bulk and tapped density): 0.422 g/mL; Tapped density (Bulk and tapped density): 0.506 g/mL |
| – | – | – | 0.37 MPa | – | – | – | – | CCC[C@H](N[C@H]1CCc2cc(F)cc(F)c2C1)C(=O)Nc1cn(C(C)(C)CNCC(C)(C)C)cn1 [Form A, (S)-2-(((S)-6,8-difluoro-1,2,3,4-tetrahydronaphthalen-2-yl)amino)-N-(1-(2-methyl-1-(neopentylamino)propan-2-yl)-1H-imidazol-4-yl) pentanamide, reference compound] | solubility at 0.5 h ([3]; fassif, solubility (concentration of Compound I in filtrate)): 4200 µg/mL (≈ 8.58 mM); solubility at 0.5 h ([3]; solubility (concentration of Compound I in filtrate)): 7500 µg/mL (≈ 15.3 mM); Bulk density (Bulk and tapped density; listed as The prior art Form A): 0.251 g/mL; Tapped density (Bulk and tapped density; listed as The prior art Form A): 0.282 g/mL |
